In ChEMBL document CHEMBL4402516, “5-Lipoxygenase as a drug target: A review on trends in inhibitors structural design, SAR and mechanism based approach” (Bioorg Med Chem, 2019):

Key:
[1] = target: T1, Polyunsaturated fatty acid 5-lipoxygenase (Homo sapiens, UniProt P09917); experiment: Inhibition of 5-LOX in A23187-stimulated human neutrophils preincubated for 15 mins followed by A23187 stimulation and measured after 10 mins
T1 sequence (P09917 whole entry): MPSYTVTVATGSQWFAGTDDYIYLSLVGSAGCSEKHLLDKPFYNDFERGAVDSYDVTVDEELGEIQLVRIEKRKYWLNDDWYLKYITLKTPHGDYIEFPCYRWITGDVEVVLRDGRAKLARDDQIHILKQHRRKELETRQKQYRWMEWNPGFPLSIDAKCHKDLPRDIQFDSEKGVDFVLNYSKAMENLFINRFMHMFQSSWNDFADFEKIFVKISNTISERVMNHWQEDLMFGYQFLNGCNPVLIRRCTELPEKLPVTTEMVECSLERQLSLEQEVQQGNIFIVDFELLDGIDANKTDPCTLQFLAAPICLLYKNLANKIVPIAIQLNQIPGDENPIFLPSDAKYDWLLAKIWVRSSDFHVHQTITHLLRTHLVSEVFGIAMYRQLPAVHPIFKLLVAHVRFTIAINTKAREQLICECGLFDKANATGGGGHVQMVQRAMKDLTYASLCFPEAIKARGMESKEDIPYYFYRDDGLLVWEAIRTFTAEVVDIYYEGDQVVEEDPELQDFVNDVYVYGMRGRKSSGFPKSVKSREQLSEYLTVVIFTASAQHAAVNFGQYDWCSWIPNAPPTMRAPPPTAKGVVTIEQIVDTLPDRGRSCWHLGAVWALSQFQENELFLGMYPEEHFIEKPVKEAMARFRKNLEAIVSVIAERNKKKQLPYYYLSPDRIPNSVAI

[2] = target: T1, Polyunsaturated fatty acid 5-lipoxygenase; experiment: Inhibition of human PMNL 5-LOX using arachidonic acid as substrate after 5 mins by HPLC method
[3] = target: T1, Polyunsaturated fatty acid 5-lipoxygenase; experiment: Inhibition of 5-LOX (unknown origin) after 5 mins by colorimetric method
[4] = target: T1, Polyunsaturated fatty acid 5-lipoxygenase; experiment: Inhibition of human leukocyte 5-LOX using arachidonic acid as substrate by UV/Vis spectrophotometry
[5] = target: T2, Polyunsaturated fatty acid 5-lipoxygenase (Rattus norvegicus, UniProt P12527); experiment: Inhibition of rat 5-LOX expressed in insect sf21 cells preincubated for 4 mins followed by Arachidonic acid addition and measured after 4 mins by FOX assay
T2 sequence (P12527 whole entry): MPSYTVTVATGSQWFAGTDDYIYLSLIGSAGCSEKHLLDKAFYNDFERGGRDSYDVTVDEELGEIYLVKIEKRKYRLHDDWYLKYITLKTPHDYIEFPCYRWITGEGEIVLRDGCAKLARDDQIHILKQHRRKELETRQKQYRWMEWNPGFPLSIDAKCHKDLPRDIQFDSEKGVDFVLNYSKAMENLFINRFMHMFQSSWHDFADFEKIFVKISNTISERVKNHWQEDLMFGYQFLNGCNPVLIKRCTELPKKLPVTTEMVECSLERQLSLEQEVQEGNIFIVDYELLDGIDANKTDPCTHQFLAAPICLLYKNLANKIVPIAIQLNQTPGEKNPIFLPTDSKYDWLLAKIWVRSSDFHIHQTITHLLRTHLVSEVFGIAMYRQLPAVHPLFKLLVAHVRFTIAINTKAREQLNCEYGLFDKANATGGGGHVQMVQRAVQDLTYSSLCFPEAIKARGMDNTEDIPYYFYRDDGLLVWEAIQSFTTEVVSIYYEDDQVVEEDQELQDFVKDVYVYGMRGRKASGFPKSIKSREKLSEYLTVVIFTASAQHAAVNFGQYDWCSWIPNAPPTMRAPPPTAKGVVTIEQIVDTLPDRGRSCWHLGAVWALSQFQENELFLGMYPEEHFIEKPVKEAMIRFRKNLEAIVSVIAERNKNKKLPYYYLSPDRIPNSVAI

[6] = target: T3, Polyunsaturated fatty acid 5-lipoxygenase (Rattus norvegicus) (UniProt P12527); experiment: Inhibition of rat 5-LOX expressed in insect sf21 cells at 1 uM preincubated for 4 mins followed by Arachidonic acid addition and measured after 4 mins by FOX assay relative to control
T3 sequence (whole entry): T2 sequence (P12527 whole entry)

[7] = target: T3, Polyunsaturated fatty acid 5-lipoxygenase (Rattus norvegicus); experiment: Inhibition of 5-LOX in rat RBL-1 cells assessed as reduction in LTB4 secretion at 1 uM preincubated for 10 mins followed by A23187 stimulation and measured after 15 mins by EIA; format: cell-based
[8] = Inhibition of soybean 15-LOX by spectrophotometric method; set-up: species or system Glycine max
[9] = target: T1, Polyunsaturated fatty acid 5-lipoxygenase; experiment: Inhibition of recombinant human 5-LOX expressed in baculovirus-infected insect cells preincubated for 10 mins followed by Arachidonic acid and ATP addition and measured after 20 mins by H2DCFD dye based fluorescence method
[10] = target: T4, Polyunsaturated fatty acid 5-lipoxygenase (Homo sapiens) (UniProt P09917); experiment: Inhibition of 5-LOX in human whole blood preincubated for 10 mins followed by Arachidonic acid and ATP addition and measured after 20 mins by H2DCFD dye based fluorescence method; format: tissue-based
T4 sequence (whole entry): T1 sequence (P09917 whole entry)

MCF7 = experiment: Antiproliferative activity against human MCF7 cells by MTT assay; format: functional, cell-based
Glycine max = experiment: Inhibition of soybean 5-LOX at 100 uM incubated for 10 mins relative to control
[11] = Inhibition of potato 5-LOX using linoleic acid as substrate measured at 2 min by UV absorbance method; set-up: species or system Solanum tuberosum
[12] = target: T1, Polyunsaturated fatty acid 5-lipoxygenase; experiment: Competitive inhibition of recombinant human 5-LOX expressed in Escherichia coli BL21 cells using Arachidonic acid as substrate by UV absorbance
[13] = target: T1, Polyunsaturated fatty acid 5-lipoxygenase; experiment: Inhibition of recombinant human 5-LOX expressed in Escherichia coli BL21 (DE3) cells preincubated for 10 mins followed by arachidonic acid addition and measured after 10 mins by RP-HPLC method
[14] = target: T4, Polyunsaturated fatty acid 5-lipoxygenase (Homo sapiens); experiment: Inhibition of recombinant human 5-LOX expressed in Escherichia coli BL21 cells at 50 uM using arachidonic acid as substrate by UV-vis spectrophotometry relative to control
[15] = target: Prostaglandin E synthase/G/H synthase 2 (Homo sapiens) (UniProt P35354+O14684); experiment: Inhibition of COX2/mPGES1 in TNFalpha-induced human HeLa cells assessed as reduction in PGE2 production at 50 uM incubated for 3 hrs by EIA relative to control; format: cell-based
Chain of Prostaglandin E synthase/G/H synthase 2 (Homo sapiens) (O14684 whole entry, looked up): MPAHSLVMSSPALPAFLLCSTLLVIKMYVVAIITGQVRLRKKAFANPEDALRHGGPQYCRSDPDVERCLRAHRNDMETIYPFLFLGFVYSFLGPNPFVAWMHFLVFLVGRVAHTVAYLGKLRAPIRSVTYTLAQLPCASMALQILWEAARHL
Chain of Prostaglandin E synthase/G/H synthase 2 (Homo sapiens) (P35354 whole entry, looked up): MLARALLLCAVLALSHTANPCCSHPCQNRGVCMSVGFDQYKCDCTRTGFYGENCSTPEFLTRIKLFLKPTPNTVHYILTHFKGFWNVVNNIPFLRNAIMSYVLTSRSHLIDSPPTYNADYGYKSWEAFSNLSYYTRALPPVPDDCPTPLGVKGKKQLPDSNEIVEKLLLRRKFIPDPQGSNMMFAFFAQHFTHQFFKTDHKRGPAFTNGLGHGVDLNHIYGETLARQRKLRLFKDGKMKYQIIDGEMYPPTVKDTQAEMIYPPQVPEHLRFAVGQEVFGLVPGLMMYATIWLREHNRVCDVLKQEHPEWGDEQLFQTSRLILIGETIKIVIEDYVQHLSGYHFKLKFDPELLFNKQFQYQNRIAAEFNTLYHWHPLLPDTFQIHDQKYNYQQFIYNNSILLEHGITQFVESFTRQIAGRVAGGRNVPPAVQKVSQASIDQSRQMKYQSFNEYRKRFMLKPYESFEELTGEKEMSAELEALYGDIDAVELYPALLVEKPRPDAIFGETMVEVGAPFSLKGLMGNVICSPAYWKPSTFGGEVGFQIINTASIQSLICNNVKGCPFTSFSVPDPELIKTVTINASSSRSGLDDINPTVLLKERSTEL

## Cc1cccc(OC(=O)c2cc([N+](=O)[O-])cc([N+](=O)[O-])c2)c1
[1]
  IC50: 0.9 µM

## C=CCSCC=C [DIALLYL SULFIDE]
[2]
  IC50: 83 µM

## Cc1cc(Nc2ncc(-c3ccc(F)cc3)o2)cc(C)c1O
[3]
  IC50: 48.3 µM

## Cc1ccc(S(=O)(=O)n2c(C(=O)C(=O)N3CCCC3)cc3ccccc32)cc1
[4]
  IC50: 0.17 µM

## CC(C)=CCn1cc(/C=N/NC(N)=O)c2cc(Br)ccc21
[5]
  IC50: 0.12 µM

## C=CCc1ccc(O)c(OC)c1 [EUGENOL]
[2]
  IC50: 26 µM

## COc1ccc(/C=C2\SC(c3ccc4ccccc4c3)=NC2=O)cc1
[6]
  inhibition: 96%
[7]
  inhibition: 98%

## CCCCCC(=O)c1c(O)cc(O)c(C/C=C(\C)CCC=C(C)C)c1O
[8]
  IC50: 10.3 µM

## Cn1nccc1-c1ccc(Sc2ccc(C3(C(N)=O)CCOCC3)cc2)cc1
[9]
  IC50: 0.229 µM
[10]
  IC80: 0.37 µM

## NCCCC(=O)c1cc(=O)c2cc(F)ccc2o1
MCF7
  IC50: 0.9 µM
Glycine max
  inhibition: 68%

## COc1cc(CNC(=O)CCCC/C=C/C(C)C)ccc1O [CAPSAICIN]
[2]
  IC50: 56 µM

## O=C/C=C/c1ccccc1
[2]
  IC50: 35 µM

## O=C(c1[nH]nc2c1CSc1sc(Br)cc1-2)N1CCN(c2ccccc2F)CC1
[11]
  IC50: 33.7 µM

## Clc1ccc(-c2cc(-c3c[nH]c4ccccc34)cc(-c3ccc(Cl)cc3)n2)cc1
[12]
  IC50: 10 µM

## O=C(/C=C/C=C/c1ccc2c(c1)OCO2)N1CCCCC1 [PIPERINE]
[2]
  IC50: 54 µM

## O=C(NCCCCCCCCCNC(=O)c1cccc(O)c1O)c1cccc(O)c1O
[13]
  IC50: 0.1 µM

## CS(=O)(=O)NC(Cc1cc(I)c(OCc2ccon2)c(I)c1)C(=O)O (stereo unspecified)
[14]
  inhibition: 74%
[15]
  inhibition: 66%
